Tests used:
[1] = target: T1, Type-1 angiotensin II receptor (Homo sapiens, UniProt P30556)
T1 sequence (P30556 whole entry): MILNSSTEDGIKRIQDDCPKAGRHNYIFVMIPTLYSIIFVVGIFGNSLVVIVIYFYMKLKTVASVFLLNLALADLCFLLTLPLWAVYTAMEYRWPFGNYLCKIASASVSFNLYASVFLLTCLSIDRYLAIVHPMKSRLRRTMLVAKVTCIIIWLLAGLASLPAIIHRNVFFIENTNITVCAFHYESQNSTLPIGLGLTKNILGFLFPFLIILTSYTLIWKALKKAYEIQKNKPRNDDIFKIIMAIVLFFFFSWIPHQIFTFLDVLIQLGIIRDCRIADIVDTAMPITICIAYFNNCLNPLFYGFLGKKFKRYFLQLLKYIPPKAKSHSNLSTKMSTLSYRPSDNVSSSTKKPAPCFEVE

[2] = target: T2, Gastrin/cholecystokinin type B receptor (Homo sapiens, UniProt P32239)
T2 sequence (P32239 whole entry): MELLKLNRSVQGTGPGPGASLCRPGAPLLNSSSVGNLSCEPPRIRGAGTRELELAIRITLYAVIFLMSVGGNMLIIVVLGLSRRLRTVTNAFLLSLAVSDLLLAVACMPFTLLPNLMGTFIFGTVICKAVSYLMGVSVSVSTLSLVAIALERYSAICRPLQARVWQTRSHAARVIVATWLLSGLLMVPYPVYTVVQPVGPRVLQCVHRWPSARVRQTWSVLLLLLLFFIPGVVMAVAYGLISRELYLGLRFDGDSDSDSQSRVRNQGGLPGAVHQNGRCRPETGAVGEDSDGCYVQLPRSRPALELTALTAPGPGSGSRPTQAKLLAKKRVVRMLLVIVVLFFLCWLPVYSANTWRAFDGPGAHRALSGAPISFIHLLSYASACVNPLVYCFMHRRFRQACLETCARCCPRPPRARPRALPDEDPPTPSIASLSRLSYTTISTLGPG

Melanocortin receptor 3 = Melanocortin receptor 3 (Homo sapiens, UniProt P41968)
Progesterone receptor = target: T3, Progesterone receptor (Homo sapiens, UniProt P06401); format: functional
T3 sequence (P06401 whole entry): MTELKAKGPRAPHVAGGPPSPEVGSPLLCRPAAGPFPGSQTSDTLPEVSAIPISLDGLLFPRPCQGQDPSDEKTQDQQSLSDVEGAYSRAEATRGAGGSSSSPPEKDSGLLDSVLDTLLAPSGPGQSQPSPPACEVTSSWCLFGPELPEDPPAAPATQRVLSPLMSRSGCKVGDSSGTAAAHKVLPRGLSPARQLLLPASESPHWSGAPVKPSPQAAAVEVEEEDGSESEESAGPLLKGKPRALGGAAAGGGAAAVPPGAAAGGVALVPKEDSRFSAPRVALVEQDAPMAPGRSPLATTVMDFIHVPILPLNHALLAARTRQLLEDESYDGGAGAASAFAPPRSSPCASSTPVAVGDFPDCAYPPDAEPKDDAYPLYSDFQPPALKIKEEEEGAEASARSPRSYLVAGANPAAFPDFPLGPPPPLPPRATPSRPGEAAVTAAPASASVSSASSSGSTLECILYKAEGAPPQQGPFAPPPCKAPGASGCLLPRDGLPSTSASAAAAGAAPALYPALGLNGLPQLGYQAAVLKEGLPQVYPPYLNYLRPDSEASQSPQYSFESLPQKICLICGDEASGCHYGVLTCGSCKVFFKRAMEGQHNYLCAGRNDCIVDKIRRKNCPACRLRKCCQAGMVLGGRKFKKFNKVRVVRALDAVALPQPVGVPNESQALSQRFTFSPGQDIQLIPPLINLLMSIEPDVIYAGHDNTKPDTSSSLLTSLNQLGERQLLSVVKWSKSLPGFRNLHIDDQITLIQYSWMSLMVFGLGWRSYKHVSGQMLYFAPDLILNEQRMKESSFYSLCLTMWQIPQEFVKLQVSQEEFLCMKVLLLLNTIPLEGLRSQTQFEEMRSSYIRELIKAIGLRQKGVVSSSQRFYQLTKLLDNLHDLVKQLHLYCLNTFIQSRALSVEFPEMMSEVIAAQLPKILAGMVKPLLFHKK

[3] = target: Sodium-dependent dopamine transporter (Homo sapiens, UniProt Q01959)
[4] = target: Sodium-dependent serotonin transporter (Homo sapiens, UniProt P31645)
Glucocorticoid receptor = target: T4, Glucocorticoid receptor (Homo sapiens, UniProt P04150)
T4 sequence (P04150 whole entry): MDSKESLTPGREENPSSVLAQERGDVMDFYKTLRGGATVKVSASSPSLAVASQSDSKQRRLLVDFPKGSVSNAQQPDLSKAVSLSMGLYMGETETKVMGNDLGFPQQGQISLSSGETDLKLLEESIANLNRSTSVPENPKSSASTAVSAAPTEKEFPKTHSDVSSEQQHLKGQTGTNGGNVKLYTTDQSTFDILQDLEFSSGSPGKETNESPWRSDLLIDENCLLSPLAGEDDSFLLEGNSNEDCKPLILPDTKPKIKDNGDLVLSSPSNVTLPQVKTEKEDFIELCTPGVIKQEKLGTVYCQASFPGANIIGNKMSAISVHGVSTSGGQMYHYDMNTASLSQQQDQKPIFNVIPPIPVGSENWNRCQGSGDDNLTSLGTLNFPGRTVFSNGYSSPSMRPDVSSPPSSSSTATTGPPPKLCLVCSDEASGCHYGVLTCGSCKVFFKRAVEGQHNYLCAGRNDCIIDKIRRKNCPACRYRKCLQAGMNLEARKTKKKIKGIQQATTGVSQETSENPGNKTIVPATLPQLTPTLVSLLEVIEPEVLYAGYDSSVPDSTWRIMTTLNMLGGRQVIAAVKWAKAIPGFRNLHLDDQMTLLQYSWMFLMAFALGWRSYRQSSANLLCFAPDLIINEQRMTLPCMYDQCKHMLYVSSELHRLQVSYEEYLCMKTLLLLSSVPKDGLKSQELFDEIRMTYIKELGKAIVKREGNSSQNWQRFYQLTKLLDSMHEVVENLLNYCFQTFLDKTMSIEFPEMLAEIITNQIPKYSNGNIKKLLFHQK
Note: assay procedure not described here.

Sodium-dependent serotonin transporter, sequence (P31645 whole entry): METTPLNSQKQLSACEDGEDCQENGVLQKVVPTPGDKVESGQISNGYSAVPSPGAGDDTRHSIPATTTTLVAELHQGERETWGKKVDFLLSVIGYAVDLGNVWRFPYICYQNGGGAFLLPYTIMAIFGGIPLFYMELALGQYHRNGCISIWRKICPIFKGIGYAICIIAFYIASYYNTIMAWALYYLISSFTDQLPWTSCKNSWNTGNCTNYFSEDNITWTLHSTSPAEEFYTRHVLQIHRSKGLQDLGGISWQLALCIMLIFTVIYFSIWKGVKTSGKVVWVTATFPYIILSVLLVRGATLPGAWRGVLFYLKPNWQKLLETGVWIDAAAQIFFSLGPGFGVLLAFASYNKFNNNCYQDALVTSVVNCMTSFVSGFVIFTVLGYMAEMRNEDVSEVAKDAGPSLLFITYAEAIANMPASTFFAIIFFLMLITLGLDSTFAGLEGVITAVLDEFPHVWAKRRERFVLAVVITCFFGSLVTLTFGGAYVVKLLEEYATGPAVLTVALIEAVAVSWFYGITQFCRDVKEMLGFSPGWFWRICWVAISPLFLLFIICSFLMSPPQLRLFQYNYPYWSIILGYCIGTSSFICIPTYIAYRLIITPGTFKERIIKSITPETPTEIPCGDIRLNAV
Melanocortin receptor 3, sequence (P41968 whole entry): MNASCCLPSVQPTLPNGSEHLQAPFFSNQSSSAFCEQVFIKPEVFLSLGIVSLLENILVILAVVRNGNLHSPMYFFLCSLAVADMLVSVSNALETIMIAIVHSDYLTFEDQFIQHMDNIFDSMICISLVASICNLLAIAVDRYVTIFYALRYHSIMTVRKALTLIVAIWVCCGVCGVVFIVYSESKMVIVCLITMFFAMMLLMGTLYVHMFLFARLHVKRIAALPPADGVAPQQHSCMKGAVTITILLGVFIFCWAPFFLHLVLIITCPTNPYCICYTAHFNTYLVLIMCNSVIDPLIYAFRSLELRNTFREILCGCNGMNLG
Sodium-dependent dopamine transporter, sequence (Q01959 whole entry): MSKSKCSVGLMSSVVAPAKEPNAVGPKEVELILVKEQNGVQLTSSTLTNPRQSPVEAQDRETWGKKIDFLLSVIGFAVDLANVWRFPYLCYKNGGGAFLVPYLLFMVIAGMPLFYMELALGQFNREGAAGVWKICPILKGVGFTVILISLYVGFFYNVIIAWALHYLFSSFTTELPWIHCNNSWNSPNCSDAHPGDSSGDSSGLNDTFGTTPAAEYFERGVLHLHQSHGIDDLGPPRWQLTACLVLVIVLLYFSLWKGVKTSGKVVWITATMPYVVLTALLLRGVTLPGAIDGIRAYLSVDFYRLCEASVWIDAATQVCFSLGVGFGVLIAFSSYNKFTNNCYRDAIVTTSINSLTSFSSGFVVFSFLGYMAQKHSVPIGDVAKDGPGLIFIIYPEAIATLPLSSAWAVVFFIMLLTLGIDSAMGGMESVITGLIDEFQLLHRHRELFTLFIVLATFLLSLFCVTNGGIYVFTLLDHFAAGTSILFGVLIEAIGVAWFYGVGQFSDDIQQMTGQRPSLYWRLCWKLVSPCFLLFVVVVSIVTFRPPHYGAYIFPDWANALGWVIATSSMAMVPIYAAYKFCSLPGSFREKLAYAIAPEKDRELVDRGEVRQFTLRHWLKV

CCCCCCOC(=O)NC(=N)c1ccc(NCc2nc3cc(C(=O)N(CCC(=O)OCC)c4ccccn4)ccc3n2C)cc1 [DABIGATRAN ETEXILATE]
AC50 [1]: 7.7 µM
AC50 [2]: > 30 µM
AC50 (Melanocortin receptor 3): > 30 µM
AC50 (Progesterone receptor): > 30 µM
AC50 [3]: 17 µM
AC50 [4]: > 30 µM

CCC1(CC)C(=O)NC(=O)N(C)C1=O [METHARBITAL]
AC50 [1]: > 10 µM
AC50 (Melanocortin receptor 3): > 10 µM
AC50 (Glucocorticoid receptor): > 10 µM
AC50 (Progesterone receptor): > 10 µM
AC50 [3]: > 10 µM
AC50 [4]: > 10 µM

COC(=O)[C@H]1[C@H]2C[C@@H]3c4[nH]c5ccccc5c4CCN3C[C@H]2C[C@@H](OC(=O)c2cc(OC)c(OC)c(OC)c2)[C@@H]1OC [DESERPIDINE]
AC50 [1]: > 10 µM
AC50 [2]: > 30 µM
AC50 (Melanocortin receptor 3): > 30 µM
AC50 (Progesterone receptor): > 30 µM
AC50 [3]: > 10 µM
AC50 [4]: > 10 µM

CN1C(=O)CN=C(c2ccccc2F)c2cc([N+](=O)[O-])ccc21 [FLUNITRAZEPAM]
AC50 [1]: > 30 µM
AC50 (Melanocortin receptor 3): 18.6 µM
AC50 (Glucocorticoid receptor): > 30 µM
AC50 [3]: > 10 µM
AC50 [4]: > 10 µM

Oc1cc(O)c2c(c1)O[C@H](c1ccc(O)c(O)c1)[C@@H](O)C2 [CIANIDANOL]
AC50 [1]: > 30 µM
AC50 [2]: > 30 µM
AC50 (Melanocortin receptor 3): > 30 µM
AC50 (Glucocorticoid receptor): > 30 µM
AC50 [3]: > 30 µM
AC50 [4]: > 30 µM

OCC(O)COc1ccc(Cl)cc1 (centres undefined)
AC50 [1]: > 10 µM
AC50 (Melanocortin receptor 3): > 10 µM
AC50 (Glucocorticoid receptor): > 10 µM
AC50 (Progesterone receptor): > 10 µM
AC50 [3]: > 10 µM
AC50 [4]: > 10 µM

O=C(O[C@H]1C[N+]2(CCCOc3ccccc3)CCC1CC2)C(O)(c1cccs1)c1cccs1 [ACLIDINIUM BROMIDE]
AC50 [1]: > 30 µM
AC50 [2]: > 30 µM
AC50 (Melanocortin receptor 3): > 30 µM
AC50 (Glucocorticoid receptor): > 30 µM
AC50 [3]: > 10 µM
AC50 [4]: > 10 µM

CC1NCCOC1c1ccccc1 (centres undefined) [PHENMETRAZINE]
AC50 [1]: > 30 µM
AC50 [2]: > 30 µM
AC50 (Melanocortin receptor 3): > 30 µM
AC50 [3]: 25.6 µM
AC50 [4]: > 30 µM

Cc1ccc(-c2ncc(Cl)cc2-c2ccc(S(C)(=O)=O)cc2)cn1 [ETORICOXIB]
AC50 [1]: > 10 µM
AC50 [2]: > 10 µM
AC50 (Melanocortin receptor 3): > 10 µM
AC50 [3]: > 10 µM
AC50 [4]: > 10 µM

Cc1cnc(Nc2ccc(OCCN3CCCC3)cc2)nc1Nc1cccc(S(=O)(=O)NC(C)(C)C)c1 [FEDRATINIB]
AC50 [1]: > 30 µM
AC50 [2]: > 30 µM
AC50 (Melanocortin receptor 3): > 30 µM
AC50 (Glucocorticoid receptor): > 30 µM
AC50 [3]: 0.08 µM
AC50 [4]: 0.732 µM

CC(C)(N)Cc1ccccc1 [PHENTERMINE]
AC50 [1]: > 30 µM
AC50 [2]: > 30 µM
AC50 (Melanocortin receptor 3): > 30 µM
AC50 (Glucocorticoid receptor): > 30 µM
AC50 [3]: > 30 µM
AC50 [4]: > 30 µM

COc1cc(N)cn[n+]1-c1ccccc1 [AMEZINIUM METILSULFATE]
AC50 [1]: > 30 µM
AC50 [2]: > 30 µM
AC50 (Melanocortin receptor 3): > 30 µM
AC50 (Progesterone receptor): > 30 µM
AC50 [3]: 5.7 µM
AC50 [4]: 17 µM

— ChEMBL document CHEMBL5291721, “A preclinical secondary pharmacology resource illuminates target-adverse drug reaction associations of marketed drugs” (Nat Commun, 2023)
